Format in all cases: functional
For experiment [1], the system named is Escherichia coli. Kind of experiment: Antibacterial activity against Escherichia coli ATCC 25922 at 100 mg/mL after 24 hrs by disc diffusion method.
For experiment [2], the system named is Streptococcus pyogenes. Kind of experiment: Antibacterial activity against Streptococcus pyogenes at 100 mg/mL after 24 hrs by disc diffusion method.
Experiment [3] concerns Staphylococcus aureus. Briefly: Antibacterial activity against Staphylococcus aureus ATCC 25923 at 100 mg/mL after 24 hrs by disc diffusion method.
Experiment [4] has as its system Staphylococcus epidermidis. Briefly: Antibacterial activity against Staphylococcus epidermidis at 100 mg/mL after 24 hrs by disc diffusion method.
The test system of experiment [5] is Escherichia coli. Kind of experiment: Antibacterial activity against Escherichia coli ATCC 25922 at 200 mg/mL after 24 hrs by disc diffusion method.
The test system of experiment [6] is Staphylococcus aureus. Briefly: Antibacterial activity against Staphylococcus aureus ATCC 25923 at 200 mg/mL after 24 hrs by disc diffusion method.
Experiment [7] deals with Staphylococcus epidermidis. Briefly: Antibacterial activity against Staphylococcus epidermidis at 200 mg/mL after 24 hrs by disc diffusion method.
Experiment [8] concerns Streptococcus pyogenes. Kind of experiment: Antibacterial activity against Streptococcus pyogenes at 200 mg/mL after 24 hrs by disc diffusion method.

For `COC(=O)CC1NN=C2N(CCN2c2ccc(OC)cc2)C1=O` (centres undefined), the Inhibition in the experiment on Escherichia coli [1] is listed as more than 20 mm; with Streptococcus pyogenes [2], more than 20 mm; with Staphylococcus aureus [3], 10 mm; in experiment [4], 16 mm.
For the compound `CCOC(=O)CC1NN=C2N(CCN2c2cccc(Cl)c2)C1=O` (centres undefined), the Inhibition in the experiment with Escherichia coli [1] is listed as more than 20 mm; in the experiment with Streptococcus pyogenes [2], more than 20 mm; in the experiment with Staphylococcus aureus [3], 10 mm; in experiment [4], less than 9 mm.
Regarding `CC1(C)S[C@@H]2[C@H](NC(=O)[C@H](N)c3ccccc3)C(=O)N2[C@H]1C(=O)O` [AMPICILLIN], the Inhibition was found to be 16 mm with Escherichia coli [5], 16 mm with Staphylococcus aureus [6], 10 mm in experiment [7] and 16 mm in the experiment on Streptococcus pyogenes [8].
Turning to `COC(=O)CC1NN=C2N(CCN2c2ccc(Cl)cc2)C1=O` (centres undefined), the Inhibition in the experiment with Escherichia coli [1] is reported as less than 9 mm; in the experiment on Streptococcus pyogenes [2], 16 mm; in the experiment with Staphylococcus aureus [3] it was 10 mm; in experiment [4], 16 mm.
For the compound `CCOC(=O)CC1NN=C2N(CCN2c2ccc(OC)cc2)C1=O` (centres undefined), the Inhibition is 16 mm in the experiment with Escherichia coli [1], more than 20 mm with Streptococcus pyogenes [2], less than 9 mm in the experiment on Staphylococcus aureus [3] and less than 9 mm in experiment [4].
`COC(=O)CC1NN=C2N(CCN2c2ccccc2)C1=O` (centres undefined): the Inhibition in the experiment with Escherichia coli [1] was less than 9 mm; in the experiment with Streptococcus pyogenes [2], more than 20 mm; in the experiment on Staphylococcus aureus [3] it was 10 mm; in experiment [4], 16 mm.
